Measurements as given in the NIST ThermoML archive (doi:10.1016/j.fluid.2012.12.028).

Settings: Liquid, Ebulliometric method (Recirculating still)

CON=C(C)C [propan-2-one O-methyl oxime]
Settings | vapor or sublimation pressure [kPa]
307.8 K | 21.3
312.4 K | 26.3
316.6 K | 32.3
319.6 K | 36.3
322.9 K | 42.3
327.6 K | 51.3
330 K | 56.3
332.2 K | 61.3
334.2 K | 66.3
336.1 K | 71.3
337.7 K | 76.3
339.6 K | 81.3
341 K | 86.3
342.6 K | 91.3
344.1 K | 96.3
